Measurements from publication PMC12590356, “Novel pyrrolo[2,1-a]isoquinoline aryl ketones attenuate carbon nanotube-induced acute lung injury through NF-κB pathway inhibition” (RSC Advances, 2025).
Like-named read-outs stand apart in the source and are kept apart here.

What was measured:
[1] = system: LPS-induced NO production in RAW 264.7 cells; test: LPS-induced NO production (Griess reagent); type: cell-based, murine; design: NO inhibition rate: dose or concentration left out as unconfirmed; key to Inhibition of LPS-induced NO production, result in words (na / tox): na: no activity at the concentration of 40 μM; toxicity; details: for NO inhibition rate / IC50: Griess reagent, means ± SD (n = 3); for IC50: Mus musculus, RAW264.7, LPS 500 ng/mL 24 h, read-out: IC50, inhibition of LPS-induced NO production; for Inhibition of LPS-induced NO production, result in words (na / tox): na at 40 μM
Experimental: Despite extensive research efforts focused on the treatment ALI, no specific drugs have been identified thus far. In the quest to discover innovative anti-inflammatory drugs for ALI treatment, we assessed the anti-inflammatory potential of pyrrolo[2,1-a]isoquinoline aryl ketones were evaluated through their capacity to suppress LPS-induced NO release in RAW264.7 cells.[21,28] Griess reagent was used to quantify the levels of LPS-induced NO release in RAW264.7 cells following treatment with the synthesized compounds.
The quantification of NO production in activated RAW264.7 cells was achieved by measuring the concentration of nitrite, which serves as a stable oxidative metabolite of NO, employing a previously established protocol.[37] RAW264.7 cells were cultured overnight in 48-well plates at a cellular density of 5 × 10^4 cells per milliliter. […] Briefly, Griess reagents I and II were mixed with 50 μL of the culture medium supernatant, and the resultant mixture was analyzed spectrophotometrically at a wavelength of 540 nm using an automated microplate reader. The NO inhibition rate was calculated using the following formula: NO inhibition rate = [(OD540 − compound OD540)/(OD540 − blank OD540)] × 100%.

[2] = CCK8 cell viability (cytotoxicity) assay; type: cell-based, murine; details: mouse, RAW264.7 cells, means ± SD (n = 3)
Experimental: The toxic effect of synthesized compounds was evaluated on RAW264.7 cells utilizing a CCK8 assay kit.
RAW264.7 cells were seeded in 96-well plates and incubated with various compounds, each at a uniform concentration of 50 μM, for 24 h. Following this incubation, CCK8 was added to the 96-well plates and incubated at 37 °C for 1 h. The control group was cultivated solely in fresh medium. The absorbance at 450 nm was quantified using an enzyme marker.

COX-1 = system: COX-1; design: method as in PMID 32358780, PMID 30243628; details: cited from earlier work
COX-2 = details: cited from earlier work
PPAR-δ = system: PPAR-δ; design: method as in PMID 22489042; details: cited from earlier work
PPAR-γ = system: PPAR-γ; design: method as in PMID 22489042; details: cited from earlier work
PPAR-α = system: PPAR-α; design: method as in PMID 22489042; details: cited from earlier work

| Structure (SMILES) | NO inhibition rate [1] | viability at 24 h, 50 µM [2] | other results |
| --- | --- | --- | --- |
| CC(C)(C)OC(=O)c1ccc2c3ccccc3ccn12 [3b] | 42.0 ± 4.2% | 95.6 ± 2.9% | – |
| N#Cc1ccc2c3ccccc3ccn12 [3c] | 46.9 ± 1.8% | 97.1 ± 2.6% | – |
| COC(=O)c1ccc2c3ccccc3ccn12 [3a] | – | 92.4 ± 6.3% | IC50 [1]: 19900 ± 710 nM |
| O=C(c1ccccc1)c1ccc2c3ccccc3ccn12 [3d] | 48.0 ± 1.3% | 96.8 ± 6.6% | – |
| C=C(C)[C@@H]1CC[C@]2(C(=O)O)CC[C@]3(C)[C@H](CC[C@@H]4[C@@]5(C)CC[C@H](O)C(C)(C)[C@@H]5CC[C@]43C)[C@@H]12 [Betulinic acid, reference compound] | – | 85.8 ± 7.4% | IC50 [1]: 11900 ± 1300 nM |
| O=C(c1ccccc1Cl)c1ccc2c3ccccc3ccn12 [3l] | 38.2 ± 5.1% | 99.3 ± 8.8% | – |
| CC(C(=O)O)c1cccc(C(=O)c2ccccc2)c1 (stereo not shown) [Ketoprofen] | – | – | IC50 (COX-1): 2 nM; IC50 (COX-2; read-out: IC50 for COX-2): 26 nM |
| Cc1ccc(C(=O)c2ccc3c4ccccc4ccn23)cc1 [3f] | – | 53.6 ± 6.4% | Inhibition of LPS-induced NO production, result in words (na / tox) [1]: tox |
| CC(C)(Oc1ccc(C(=O)c2ccc(Cl)cc2)cc1)C(=O)O [Fenofibric acid] | – | – | EC50 (PPAR-δ): […]; EC50 (PPAR-γ): […]; EC50 (PPAR-α): […]; IC50 (COX-2; read-out: IC50, COX-2 inhibitory activity): 48 nM |
| O=C(c1ccc2ccccc2c1)c1ccc2c3ccccc3ccn12 [3p] | – | 93.2 ± 4.7% | – |
| COc1ccc(C(=O)c2ccc3c4ccccc4ccn23)cc1 [3e] | – | 88.7 ± 5.8% | – |
| Cc1cccc(C(=O)c2ccc3c4ccccc4ccn23)c1 [3n] | 46.8 ± 3.1% | – | – |
| O=C(c1ccccc1O)c1ccc2c3ccccc3ccn12 [3m] | – | 46.4 ± 6.5% | Inhibition of LPS-induced NO production, result in words (na / tox) [1]: tox |
| O=C(c1ccc(C(F)(F)F)cc1)c1ccc2c3ccccc3ccn12 [3j] | – | 89.9 ± 5.6% | – |
| O=C(c1cccc(Cl)c1)c1ccc2c3ccccc3ccn12 [3o] | 39.2 ± 7.1% | 91.5 ± 8.5% | – |
| O=C(c1ccc(Cl)cc1)c1ccc2c3ccccc3ccn12 [3h] | 39.6 ± 5.3% | 101 ± 3% | – |
| O=C(c1ccc(Br)cc1)c1ccc2c3ccccc3ccn12 [3i] | – | 95.9 ± 7.7% | – |
